target: PHKG1 (human) (UniProt Q16816); test: radiometric filter-binding kinase assay, Kinase HotSpot; conditions: compound 0.5 µM; ATP 10 µM

| Structure (SMILES) | residual activity [%] |
| --- | --- |
| Cc1cc2ncc(-c3ccccc3)nc2cc1C | 97.4 |
| Nc1n[nH]c2nnc(-c3c(-c4ccccc4)nn4ccccc34)cc12 | 101 |
| O=C1Nc2ccccc2/C1=C\c1c(Cl)[nH]c2ccccc12 | 85.4 |

target: PLK3 (human) (UniProt Q9H4B4); test: as above; conditions: compound 0.5 µM; ATP 10 µM

| Structure (SMILES) | residual activity [%] |
| --- | --- |
| Cc1cc2ncc(-c3ccccc3)nc2cc1C | 90.1 |
| Nc1n[nH]c2nnc(-c3c(-c4ccccc4)nn4ccccc34)cc12 | 100 |
| O=C1Nc2ccccc2/C1=C\c1c(Cl)[nH]c2ccccc12 | 101 |

target: WNK2 (human) (UniProt Q9Y3S1); test: as above; conditions: compound 0.5 µM; ATP 10 µM

| Structure (SMILES) | residual activity [%] |
| --- | --- |
| Cc1cc2ncc(-c3ccccc3)nc2cc1C | 98.8 |
| Nc1n[nH]c2nnc(-c3c(-c4ccccc4)nn4ccccc34)cc12 | 111 |
| O=C1Nc2ccccc2/C1=C\c1c(Cl)[nH]c2ccccc12 | 93.4 |

target: TYRO3 (human) (UniProt Q06418); test: as above; conditions: compound 0.5 µM; ATP 10 µM
Sequence (Q06418 whole entry, looked up): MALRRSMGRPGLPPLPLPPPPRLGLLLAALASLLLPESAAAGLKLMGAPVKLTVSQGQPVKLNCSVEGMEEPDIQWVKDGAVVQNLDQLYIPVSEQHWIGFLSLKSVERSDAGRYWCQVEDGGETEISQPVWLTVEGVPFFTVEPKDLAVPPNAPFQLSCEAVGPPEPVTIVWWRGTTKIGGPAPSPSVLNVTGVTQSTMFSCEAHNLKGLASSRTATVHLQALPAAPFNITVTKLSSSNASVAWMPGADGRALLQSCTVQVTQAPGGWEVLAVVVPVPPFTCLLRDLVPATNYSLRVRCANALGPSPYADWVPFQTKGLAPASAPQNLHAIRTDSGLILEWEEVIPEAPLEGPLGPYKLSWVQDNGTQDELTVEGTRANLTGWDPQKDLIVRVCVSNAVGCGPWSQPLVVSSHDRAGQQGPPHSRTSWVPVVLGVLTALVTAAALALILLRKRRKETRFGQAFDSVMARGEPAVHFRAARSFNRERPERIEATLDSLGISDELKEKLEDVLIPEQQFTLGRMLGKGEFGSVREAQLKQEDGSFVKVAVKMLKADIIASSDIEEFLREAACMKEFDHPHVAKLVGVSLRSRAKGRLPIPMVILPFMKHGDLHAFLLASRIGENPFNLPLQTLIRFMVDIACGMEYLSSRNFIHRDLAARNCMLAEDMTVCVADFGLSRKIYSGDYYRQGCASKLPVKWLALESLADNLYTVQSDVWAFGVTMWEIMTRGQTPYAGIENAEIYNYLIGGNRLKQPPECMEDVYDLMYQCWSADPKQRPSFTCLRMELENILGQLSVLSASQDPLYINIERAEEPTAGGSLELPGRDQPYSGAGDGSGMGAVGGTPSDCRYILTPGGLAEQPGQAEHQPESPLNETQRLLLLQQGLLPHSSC

| Structure (SMILES) | residual activity [%] |
| --- | --- |
| Cc1cc2ncc(-c3ccccc3)nc2cc1C | 90.9 |
| Nc1n[nH]c2nnc(-c3c(-c4ccccc4)nn4ccccc34)cc12 | 97.6 |
| O=C1Nc2ccccc2/C1=C\c1c(Cl)[nH]c2ccccc12 | 99.4 |

target: FES (human) (UniProt P07332); test: as above; conditions: compound 0.5 µM; ATP 10 µM

| Structure (SMILES) | residual activity [%] |
| --- | --- |
| Cc1cc2ncc(-c3ccccc3)nc2cc1C | 97.3 |
| Nc1n[nH]c2nnc(-c3c(-c4ccccc4)nn4ccccc34)cc12 | 97.8 |
| O=C1Nc2ccccc2/C1=C\c1c(Cl)[nH]c2ccccc12 | 96.6 |

target: PIM1 (human) (UniProt P11309); test: as above; conditions: compound 0.5 µM; ATP 10 µM

| Structure (SMILES) | residual activity [%] |
| --- | --- |
| Cc1cc2ncc(-c3ccccc3)nc2cc1C | 101 |
| Nc1n[nH]c2nnc(-c3c(-c4ccccc4)nn4ccccc34)cc12 | 100 |
| O=C1Nc2ccccc2/C1=C\c1c(Cl)[nH]c2ccccc12 | 88.5 |

target: MAPK11 (human) (UniProt Q15759); test: as above; conditions: compound 0.5 µM; ATP 10 µM

| Structure (SMILES) | residual activity [%] |
| --- | --- |
| Cc1cc2ncc(-c3ccccc3)nc2cc1C | 96.8 |
| Nc1n[nH]c2nnc(-c3c(-c4ccccc4)nn4ccccc34)cc12 | 90 |
| O=C1Nc2ccccc2/C1=C\c1c(Cl)[nH]c2ccccc12 | 94.5 |

target: PAK4 (human) (UniProt O96013); test: as above; conditions: compound 0.5 µM; ATP 10 µM

| Structure (SMILES) | residual activity [%] |
| --- | --- |
| Cc1cc2ncc(-c3ccccc3)nc2cc1C | 105 |
| Nc1n[nH]c2nnc(-c3c(-c4ccccc4)nn4ccccc34)cc12 | 101 |
| O=C1Nc2ccccc2/C1=C\c1c(Cl)[nH]c2ccccc12 | 104 |

target: PLK2 (human) (UniProt Q9NYY3); test: as above; conditions: compound 0.5 µM; ATP 10 µM
Sequence (Q9NYY3 whole entry, looked up): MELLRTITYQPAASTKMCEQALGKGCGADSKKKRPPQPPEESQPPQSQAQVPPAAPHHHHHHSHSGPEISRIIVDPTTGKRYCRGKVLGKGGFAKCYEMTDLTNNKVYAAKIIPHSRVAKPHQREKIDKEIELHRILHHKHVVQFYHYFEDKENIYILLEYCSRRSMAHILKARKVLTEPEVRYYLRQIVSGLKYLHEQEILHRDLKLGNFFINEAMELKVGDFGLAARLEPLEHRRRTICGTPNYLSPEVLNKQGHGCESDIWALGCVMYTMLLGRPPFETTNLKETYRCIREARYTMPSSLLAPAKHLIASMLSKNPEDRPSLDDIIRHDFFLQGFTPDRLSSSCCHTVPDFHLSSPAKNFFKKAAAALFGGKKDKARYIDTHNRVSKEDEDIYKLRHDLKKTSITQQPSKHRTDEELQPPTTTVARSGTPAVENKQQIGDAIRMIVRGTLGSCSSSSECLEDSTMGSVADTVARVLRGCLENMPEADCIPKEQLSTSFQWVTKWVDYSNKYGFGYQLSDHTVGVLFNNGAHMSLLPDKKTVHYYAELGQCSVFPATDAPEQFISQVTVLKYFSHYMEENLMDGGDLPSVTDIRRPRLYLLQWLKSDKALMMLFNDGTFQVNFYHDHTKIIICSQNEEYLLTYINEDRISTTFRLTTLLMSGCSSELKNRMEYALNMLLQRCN

| Structure (SMILES) | residual activity [%] |
| --- | --- |
| Cc1cc2ncc(-c3ccccc3)nc2cc1C | 95 |
| Nc1n[nH]c2nnc(-c3c(-c4ccccc4)nn4ccccc34)cc12 | 107 |
| O=C1Nc2ccccc2/C1=C\c1c(Cl)[nH]c2ccccc12 | 98.2 |

target: PIM3 (human) (UniProt Q86V86); test: as above; conditions: compound 0.5 µM; ATP 10 µM

| Structure (SMILES) | residual activity [%] |
| --- | --- |
| Cc1cc2ncc(-c3ccccc3)nc2cc1C | 103 |
| Nc1n[nH]c2nnc(-c3c(-c4ccccc4)nn4ccccc34)cc12 | 100 |
| O=C1Nc2ccccc2/C1=C\c1c(Cl)[nH]c2ccccc12 | 100 |

target: EPHB4 (human) (UniProt P54760); test: as above; conditions: compound 0.5 µM; ATP 10 µM

| Structure (SMILES) | residual activity [%] |
| --- | --- |
| Cc1cc2ncc(-c3ccccc3)nc2cc1C | 95.6 |
| Nc1n[nH]c2nnc(-c3c(-c4ccccc4)nn4ccccc34)cc12 | 98.5 |
| O=C1Nc2ccccc2/C1=C\c1c(Cl)[nH]c2ccccc12 | 90.2 |

target: PRKCH (human) (UniProt P24723); test: as above; conditions: compound 0.5 µM; ATP 10 µM

| Structure (SMILES) | residual activity [%] |
| --- | --- |
| Cc1cc2ncc(-c3ccccc3)nc2cc1C | 100 |
| Nc1n[nH]c2nnc(-c3c(-c4ccccc4)nn4ccccc34)cc12 | 77.2 |
| O=C1Nc2ccccc2/C1=C\c1c(Cl)[nH]c2ccccc12 | 73.6 |

target: TGFBR1 (human) (UniProt P36897); test: as above; conditions: compound 0.5 µM; ATP 10 µM

| Structure (SMILES) | residual activity [%] |
| --- | --- |
| Cc1cc2ncc(-c3ccccc3)nc2cc1C | 94.7 |
| Nc1n[nH]c2nnc(-c3c(-c4ccccc4)nn4ccccc34)cc12 | 96.1 |
| O=C1Nc2ccccc2/C1=C\c1c(Cl)[nH]c2ccccc12 | 94.4 |

target: MUSK (human) (UniProt O15146); test: as above; conditions: compound 0.5 µM; ATP 10 µM
Sequence (O15146 whole entry, looked up): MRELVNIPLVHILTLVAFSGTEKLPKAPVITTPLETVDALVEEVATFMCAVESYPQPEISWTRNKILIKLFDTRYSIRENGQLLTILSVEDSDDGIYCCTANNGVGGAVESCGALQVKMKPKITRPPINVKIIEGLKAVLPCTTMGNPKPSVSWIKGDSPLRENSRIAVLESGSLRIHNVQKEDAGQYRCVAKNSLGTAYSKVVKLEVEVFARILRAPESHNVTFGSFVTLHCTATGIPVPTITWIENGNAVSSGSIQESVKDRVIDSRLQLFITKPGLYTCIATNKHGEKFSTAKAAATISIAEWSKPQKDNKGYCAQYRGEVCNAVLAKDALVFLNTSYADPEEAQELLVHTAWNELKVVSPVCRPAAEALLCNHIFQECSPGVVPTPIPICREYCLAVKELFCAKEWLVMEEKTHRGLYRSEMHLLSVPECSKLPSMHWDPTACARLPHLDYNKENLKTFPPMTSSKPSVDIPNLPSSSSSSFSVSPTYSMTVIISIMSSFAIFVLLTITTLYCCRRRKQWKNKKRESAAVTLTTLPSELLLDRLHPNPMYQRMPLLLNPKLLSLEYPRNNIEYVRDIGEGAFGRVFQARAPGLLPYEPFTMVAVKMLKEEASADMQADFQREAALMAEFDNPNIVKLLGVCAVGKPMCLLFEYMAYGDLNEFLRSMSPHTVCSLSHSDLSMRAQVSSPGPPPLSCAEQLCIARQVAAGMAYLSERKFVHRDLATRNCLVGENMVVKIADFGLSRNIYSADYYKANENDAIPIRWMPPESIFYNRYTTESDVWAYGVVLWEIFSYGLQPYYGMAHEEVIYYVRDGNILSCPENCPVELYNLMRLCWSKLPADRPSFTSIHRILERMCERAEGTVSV

| Structure (SMILES) | residual activity [%] |
| --- | --- |
| Cc1cc2ncc(-c3ccccc3)nc2cc1C | 102 |
| Nc1n[nH]c2nnc(-c3c(-c4ccccc4)nn4ccccc34)cc12 | 96.8 |
| O=C1Nc2ccccc2/C1=C\c1c(Cl)[nH]c2ccccc12 | 96.4 |

target: CLK2 (human) (UniProt P49760); test: as above; conditions: compound 0.5 µM; ATP 10 µM
Sequence (P49760 whole entry, looked up): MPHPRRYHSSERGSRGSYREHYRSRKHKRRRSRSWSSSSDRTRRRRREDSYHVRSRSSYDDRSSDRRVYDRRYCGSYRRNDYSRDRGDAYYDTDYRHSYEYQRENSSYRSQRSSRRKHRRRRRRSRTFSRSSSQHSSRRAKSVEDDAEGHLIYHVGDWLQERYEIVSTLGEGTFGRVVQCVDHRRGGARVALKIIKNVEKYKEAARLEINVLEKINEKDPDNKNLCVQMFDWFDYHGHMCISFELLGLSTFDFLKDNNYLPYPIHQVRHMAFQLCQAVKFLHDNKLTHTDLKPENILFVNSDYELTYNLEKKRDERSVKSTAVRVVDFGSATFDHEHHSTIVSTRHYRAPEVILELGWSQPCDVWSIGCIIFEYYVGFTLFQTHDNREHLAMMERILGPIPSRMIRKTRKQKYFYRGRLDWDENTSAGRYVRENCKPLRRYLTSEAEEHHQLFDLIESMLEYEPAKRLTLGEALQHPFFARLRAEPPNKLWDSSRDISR

| Structure (SMILES) | residual activity [%] |
| --- | --- |
| Cc1cc2ncc(-c3ccccc3)nc2cc1C | 102 |
| Nc1n[nH]c2nnc(-c3c(-c4ccccc4)nn4ccccc34)cc12 | 94.9 |
| O=C1Nc2ccccc2/C1=C\c1c(Cl)[nH]c2ccccc12 | 92.7 |

target: GRK5 (human) (UniProt P34947); test: as above; conditions: compound 0.5 µM; ATP 10 µM
Sequence (P34947 whole entry, looked up): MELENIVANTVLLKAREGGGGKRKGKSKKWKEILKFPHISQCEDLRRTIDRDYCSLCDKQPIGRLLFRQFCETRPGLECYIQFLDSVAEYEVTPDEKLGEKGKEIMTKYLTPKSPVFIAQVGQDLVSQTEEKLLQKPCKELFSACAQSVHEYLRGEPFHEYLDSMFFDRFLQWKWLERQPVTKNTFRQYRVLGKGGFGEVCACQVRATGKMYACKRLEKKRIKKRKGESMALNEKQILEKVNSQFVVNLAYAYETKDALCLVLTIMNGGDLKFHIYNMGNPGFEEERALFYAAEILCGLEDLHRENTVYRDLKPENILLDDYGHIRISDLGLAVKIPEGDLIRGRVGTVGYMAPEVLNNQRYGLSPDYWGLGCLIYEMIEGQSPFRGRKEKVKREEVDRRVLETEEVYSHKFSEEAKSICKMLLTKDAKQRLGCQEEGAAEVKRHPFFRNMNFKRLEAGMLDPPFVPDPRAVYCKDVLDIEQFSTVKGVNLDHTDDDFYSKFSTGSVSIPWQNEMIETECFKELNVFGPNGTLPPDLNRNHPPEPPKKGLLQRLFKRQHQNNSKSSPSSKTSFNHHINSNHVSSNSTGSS

| Structure (SMILES) | residual activity [%] |
| --- | --- |
| Cc1cc2ncc(-c3ccccc3)nc2cc1C | 107 |
| Nc1n[nH]c2nnc(-c3c(-c4ccccc4)nn4ccccc34)cc12 | 106 |
| O=C1Nc2ccccc2/C1=C\c1c(Cl)[nH]c2ccccc12 | 109 |

target: DAPK1 (human) (UniProt P53355); test: as above; conditions: compound 0.5 µM; ATP 10 µM

| Structure (SMILES) | residual activity [%] |
| --- | --- |
| Cc1cc2ncc(-c3ccccc3)nc2cc1C | 88.4 |
| Nc1n[nH]c2nnc(-c3c(-c4ccccc4)nn4ccccc34)cc12 | 95.9 |
| O=C1Nc2ccccc2/C1=C\c1c(Cl)[nH]c2ccccc12 | 88.1 |

target: MARK1 (human) (UniProt Q9P0L2); test: as above; conditions: compound 0.5 µM; ATP 10 µM

| Structure (SMILES) | residual activity [%] |
| --- | --- |
| Cc1cc2ncc(-c3ccccc3)nc2cc1C | 106 |
| Nc1n[nH]c2nnc(-c3c(-c4ccccc4)nn4ccccc34)cc12 | 98 |
| O=C1Nc2ccccc2/C1=C\c1c(Cl)[nH]c2ccccc12 | 96 |

target: MAPKAPK5 (human) (UniProt Q8IW41); test: as above; conditions: compound 0.5 µM; ATP 10 µM

| Structure (SMILES) | residual activity [%] |
| --- | --- |
| Cc1cc2ncc(-c3ccccc3)nc2cc1C | 95.1 |
| Nc1n[nH]c2nnc(-c3c(-c4ccccc4)nn4ccccc34)cc12 | 97.7 |
| O=C1Nc2ccccc2/C1=C\c1c(Cl)[nH]c2ccccc12 | 121 |

target: CDK5 CDK5R1 p35 (human) (UniProt Q00535+Q15078); test: as above; conditions: compound 0.5 µM; ATP 10 µM

| Structure (SMILES) | residual activity [%] |
| --- | --- |
| Cc1cc2ncc(-c3ccccc3)nc2cc1C | 89.1 |
| Nc1n[nH]c2nnc(-c3c(-c4ccccc4)nn4ccccc34)cc12 | 105 |
| O=C1Nc2ccccc2/C1=C\c1c(Cl)[nH]c2ccccc12 | 86.7 |

target: EPHA8 (human) (UniProt P29322); test: as above; conditions: compound 0.5 µM; ATP 10 µM
Sequence (P29322 whole entry, looked up): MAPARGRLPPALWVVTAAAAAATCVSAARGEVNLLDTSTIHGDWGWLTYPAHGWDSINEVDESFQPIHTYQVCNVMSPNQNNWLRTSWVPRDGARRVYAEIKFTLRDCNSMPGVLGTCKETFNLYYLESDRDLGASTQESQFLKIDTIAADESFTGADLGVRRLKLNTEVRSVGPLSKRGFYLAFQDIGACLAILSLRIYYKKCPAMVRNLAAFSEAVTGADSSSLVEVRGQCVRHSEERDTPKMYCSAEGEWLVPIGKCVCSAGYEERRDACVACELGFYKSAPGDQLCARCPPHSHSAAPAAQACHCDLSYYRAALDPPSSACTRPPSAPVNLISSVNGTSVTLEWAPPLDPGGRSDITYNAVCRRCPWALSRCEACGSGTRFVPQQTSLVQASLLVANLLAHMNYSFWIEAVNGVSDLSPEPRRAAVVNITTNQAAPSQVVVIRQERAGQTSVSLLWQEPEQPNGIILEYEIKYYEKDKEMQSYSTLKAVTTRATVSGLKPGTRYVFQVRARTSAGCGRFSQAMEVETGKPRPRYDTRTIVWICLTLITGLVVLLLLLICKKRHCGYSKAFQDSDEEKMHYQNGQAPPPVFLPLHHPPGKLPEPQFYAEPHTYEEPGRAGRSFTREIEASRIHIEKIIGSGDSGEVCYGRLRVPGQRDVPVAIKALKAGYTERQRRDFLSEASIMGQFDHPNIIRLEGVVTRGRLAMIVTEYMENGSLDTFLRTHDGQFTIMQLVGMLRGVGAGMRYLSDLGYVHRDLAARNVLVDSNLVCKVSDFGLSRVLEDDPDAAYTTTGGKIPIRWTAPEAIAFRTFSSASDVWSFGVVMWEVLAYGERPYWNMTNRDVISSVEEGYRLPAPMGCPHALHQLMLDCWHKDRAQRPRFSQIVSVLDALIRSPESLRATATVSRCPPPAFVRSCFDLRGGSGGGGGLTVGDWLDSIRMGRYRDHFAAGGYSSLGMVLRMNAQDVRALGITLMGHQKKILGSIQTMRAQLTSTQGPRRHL

| Structure (SMILES) | residual activity [%] |
| --- | --- |
| Cc1cc2ncc(-c3ccccc3)nc2cc1C | 94.5 |
| Nc1n[nH]c2nnc(-c3c(-c4ccccc4)nn4ccccc34)cc12 | 100 |
| O=C1Nc2ccccc2/C1=C\c1c(Cl)[nH]c2ccccc12 | 103 |
